In US6914075B2, “Cystine derivative and agent for suppressing activation of inflammatory factors” (Ajinomoto Co., Inc., priority 2001, dated 2005):

System: NF-κB
Assay: Test of the potency of NF-κB activation suppression (gel shift assay, UVB-irradiated human epidermal cells)
Type: cell-based
Conditions: added 18 h before UVB 50 mJ/cm^2, nuclear protein 4 to 5 hours later
Protocol: Test compounds shown in Table 1 were added individually to human epidermal cells at confluency in a culture plate. 18 hours later, the culture broth was exchanged with a phenol red-free culture medium. Using Dermalei M-DMR-80 (manufactured by Toshiba Medical Supplies, Co., Ltd.), the cells were irradiated with an ultraviolet ray (UVB: 50 mJ/cm^2). 4 to 5 hours later, the cells were recovered and the nuclear protein was extracted using a general method. By using a gel shift assay method, the activated NF-κB in the resulting nuclear protein was detected. Determination of NF-κB was conducted based on counting the radioactivity of labeled NF-κB using a bioimaging analyzer BAS2000 (manufactured by Fuji Film Co., Ltd.). The ratio of NF-κB activation suppression by the inventive compounds compared with a test compound was calculated by the following formula (1). Ratio (%) of NF-κB activation suppression=[1-(A1−A3)/(A2−A3)]×100 (1)
A1: radioactivity of NF-κB band with addition of test compound
A2: radioactivity of NF-κB band without addition of test compound
A3: radioactivity of NF-κB band without addition of test compound and without ultraviolet irradiation

Row | SMILES | Suppression ratio (%) of NF-κB activation (test compound 10 mM) [%] | Suppression ratio (%) of NF-κB activation (test compound 30 mM) [%] | Suppression ratio (%) of NF-κB activation (test compound 0.1 mM) [%] | Suppression ratio (%) of NF-κB activation (test compound 0.5 mM) [%] | Suppression ratio (%) of NF-κB activation (test compound 1.0 mM) [%]
1 | O=C(O)[C@H](CO)NCc1ccccc1O [N-(2-Hydroxybenzyl)-L-serine] | 17 | 34 |  |  | 
2 | O=C(O)[C@H](CSSC[C@H](NCc1ccccc1O)C(=O)O)NCc1ccccc1O [N,N′-Bis(2-hydroxybenzyl)-L-cystine] |  |  | 41 | 86 | > 100
3 | CC(=O)N[C@@H](CSSC[C@H](NC(C)=O)C(=O)O)C(=O)O [N,N′-Diacetyl-L-cystine] | 48 | 67 |  |  | 
